Results: the supplement of paper PMC6580486

Key:
PCB490-4 = system: PCB490-4 (human epithelioid sarcoma primary culture)
Description: (§1)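 Roche open-access kinase inhibitor screen (223 compounds) on human epithelioid sarcoma primary cultures from three spatially distinct regions of tumor PCB490. 384-well plates, 72 h, CellTiter-Glo viability; IC50 by Hill curve fit. 100000 nM = no IC50 reached. Compound ids carry a plate-well prefix, which is stripped.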

PCB490-5 = system: PCB490-5 (human epithelioid sarcoma primary culture)
Description: as §1

PCB490-3 = system: PCB490-3 (human epithelioid sarcoma primary culture)
Description: as §1

Row | SMILES | IC50 cell viability (PCB490-4) | IC50 cell viability (PCB490-5) | IC50 cell viability (PCB490-3)
1 | O=C1NC(=NCc2c(Cl)cccc2Cl)S/C1=C\c1ccc2ncccc2c1 | > 100 µM | > 100 µM | > 100 µM
2 | O=C1C(c2c[nH]c3ccccc23)=C(c2c[nH]c3ccccc23)C(=O)N1O | > 100 µM | > 100 µM | > 100 µM
3 | O=C1NC(=NCc2ccccc2Cl)S/C1=C\c1ccc2ncccc2c1 | > 100 µM | > 100 µM | > 100 µM
4 | Nc1c(C(=O)c2cccc(CCCN3CCOCC3)c2)cnn1-c1ccc(F)cc1 | > 100 µM | > 100 µM | > 100 µM
5 | O=C1NC(=NCCc2ccc(Cl)cc2)S/C1=C\c1ccc2ncccc2c1 | > 100 µM | > 100 µM | > 100 µM
6 | COc1cc(F)c(F)cc1C(=O)c1cnc(NC2CCN(S(C)(=O)=O)CC2)nc1N | > 100 µM | > 100 µM | > 100 µM
7 | Cn1cc(C2=C(c3ccc(N)cc3)C(=O)NC2=O)c2ccccc21 | > 100 µM | > 100 µM | > 100 µM
8 | CC(C)(O)Cn1c(=O)c(Oc2ccc(F)cc2F)cc2cnc(NC3CCOCC3)nc21 | > 100 µM | > 100 µM | 2.86 µM
9 | Nc1c(C(=O)c2cccc(C#CCN3CCCCC3)c2)cnn1-c1ccc(F)cc1 | > 100 µM | > 100 µM | > 100 µM
10 | Cc1ccccc1C1=C(c2cn(C)c3ccccc23)C(=O)NC1=O | > 100 µM | > 100 µM | > 100 µM
11 | O=C1NC(=NCC(CO)c2ccccc2)S/C1=C\c1ccc2ncccc2c1 (stereo not given) | > 100 µM | > 100 µM | > 100 µM
12 | CN1CCN(CC#Cc2cccc(C(=O)c3cnn(-c4ccc(F)cc4)c3N)c2)CC1 | > 100 µM | > 100 µM | > 100 µM
13 | O=C1NC(=O)/C(=C/c2ccc3ncccc3c2)S1 | > 100 µM | > 100 µM | > 100 µM
14 | Nc1c(C(=O)c2ccc(C#CCN3CCOCC3)cc2)cnn1-c1ccc(F)cc1 | > 100 µM | > 100 µM | > 100 µM
15 | CSc1c(C2=C(c3cn(C)c4ccccc34)C(=O)NC2=O)c2ccccc2n1C | > 100 µM | > 100 µM | > 100 µM
16 | Cn1cc(C2=C(c3cn(CCCCCN)c4ccccc34)C(=O)NC2=O)c2ccccc21 | > 100 µM | > 100 µM | > 100 µM
17 | CC(=O)N1CCC(Nc2ncc3cc(Oc4ccc(F)cc4F)c(=O)n(C)c3n2)CC1 | > 100 µM | > 100 µM | > 100 µM
18 | O=C1NC(=NCCc2ccccc2Cl)S/C1=C\c1ccc2ncccc2c1 | > 100 µM | > 100 µM | > 100 µM
19 | N=C1N=C(N)/C(=C/c2ccc3ncccc3c2)S1 | > 100 µM | > 100 µM | > 100 µM
20 | O=C1NC(=NCc2cccs2)SC1Cc1ccc2ncccc2c1 (stereo not given) | > 100 µM | > 100 µM | > 100 µM
21 | Cc1[nH]nc2c1N=C(c1ccccc1F)c1cc(C(N)=O)ccc1N2 | 2.66 µM | 4.23 µM | > 100 µM
22 | Cn1cc(C2=C(c3c([S+](C)[O-])n(C)c4ccccc34)C(=O)NC2=O)c2ccccc21 (stereo not given) | > 100 µM | > 100 µM | > 100 µM
23 | Cn1cc(C2=C(c3c4n(c5ccccc35)CCCC4)C(=O)NC2=O)c2ccccc21 | > 100 µM | > 100 µM | > 100 µM
24 | Nc1c(C(=O)c2cccc(C#CCN3CCOCC3)c2)cnn1-c1ccc(F)cc1 | > 100 µM | > 100 µM | > 100 µM
25 | CNCC#Cc1c(F)ccc2c1/C(=C/c1[nH]ccc1OC)C(=O)N2 | 20.7 µM | 19.5 µM | 26.8 µM
26 | O=C1NC(=N[C@@H](CO)Cc2ccccc2)S/C1=C\c1ccc2ncccc2c1 | > 100 µM | > 100 µM | > 100 µM
27 | Cn1cc(C2=C(c3cn(C)c4cc(C(N)=O)ccc34)C(=O)NC2=O)c2ccccc21 | > 100 µM | > 100 µM | > 100 µM
28 | Cn1cc(C2=C(c3cn(-c4ccccc4)c4ccccc34)C(=O)NC2=O)c2ccccc21 | > 100 µM | > 100 µM | > 100 µM
29 | Cn1c(=O)c(Oc2ccc(F)cc2F)cc2cnc(NC(C)(C)CO)nc21 | > 100 µM | > 100 µM | > 100 µM
30 | Cn1c(-c2ccncc2)c(-c2ccc(F)cc2)c2ncccc21 | > 100 µM | > 100 µM | > 100 µM
